Source: ChEMBL document CHEMBL1154073, “Combining selectivity and affinity predictions using an integrated Support Vector Machine (SVM) approach: An alternative tool to discriminate between the human adenosine A(2A) and A(3) receptor pyrazolo-triazolo-pyrimidine antagonists binding sites” (Bioorg Med Chem, 2009)

Experiments:
Adenosine receptor A2a = Adenosine receptor A2a (Homo sapiens, UniProt P29274); experiment: biochemical
Description: Displacement of [3H]NECA from human adenosine A2A receptor expressed in CHO cells

Adenosine receptor A3 = biological target: T1, Adenosine receptor A3 (Homo sapiens, UniProt P0DMS8); experiment: Displacement of [3H]NECA from human adenosine A3 receptor expressed in CHO cells; format: cell-based
T1 sequence (P0DMS8 whole entry): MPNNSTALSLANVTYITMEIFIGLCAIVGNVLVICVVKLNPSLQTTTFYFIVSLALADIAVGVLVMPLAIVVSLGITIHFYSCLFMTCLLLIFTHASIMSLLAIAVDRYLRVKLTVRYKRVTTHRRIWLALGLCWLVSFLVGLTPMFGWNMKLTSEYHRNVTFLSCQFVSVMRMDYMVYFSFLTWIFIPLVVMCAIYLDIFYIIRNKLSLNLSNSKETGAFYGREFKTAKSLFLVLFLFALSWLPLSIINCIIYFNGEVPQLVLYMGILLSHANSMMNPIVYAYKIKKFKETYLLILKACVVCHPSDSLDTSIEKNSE

Adenosine receptor A2b = biological target: T2, Adenosine receptor A2b (Homo sapiens, UniProt P29275); experiment: Antagonist activity at human adenosine A2B receptor expressed in CHO cells assessed as inhibition of NECA-induced adenylyl cyclase activity; format: functional, cell-based
T2 sequence (P29275 whole entry): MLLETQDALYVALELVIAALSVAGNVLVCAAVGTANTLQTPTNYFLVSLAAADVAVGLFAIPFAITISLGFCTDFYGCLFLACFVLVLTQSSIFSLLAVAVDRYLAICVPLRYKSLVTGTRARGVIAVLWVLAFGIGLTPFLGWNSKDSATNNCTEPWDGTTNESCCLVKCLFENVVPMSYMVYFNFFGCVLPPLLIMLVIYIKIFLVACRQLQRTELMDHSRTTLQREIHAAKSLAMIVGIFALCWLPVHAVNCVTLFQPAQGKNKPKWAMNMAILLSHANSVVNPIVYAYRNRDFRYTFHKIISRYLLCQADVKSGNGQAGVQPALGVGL

Adenosine receptor A1 = biological target: T3, Adenosine receptor A1 (Homo sapiens, UniProt P30542); experiment: Displacement of [3H]CCPA from human adenosine A1 receptor expressed in CHO cells; format: cell-based
T3 sequence (P30542 whole entry): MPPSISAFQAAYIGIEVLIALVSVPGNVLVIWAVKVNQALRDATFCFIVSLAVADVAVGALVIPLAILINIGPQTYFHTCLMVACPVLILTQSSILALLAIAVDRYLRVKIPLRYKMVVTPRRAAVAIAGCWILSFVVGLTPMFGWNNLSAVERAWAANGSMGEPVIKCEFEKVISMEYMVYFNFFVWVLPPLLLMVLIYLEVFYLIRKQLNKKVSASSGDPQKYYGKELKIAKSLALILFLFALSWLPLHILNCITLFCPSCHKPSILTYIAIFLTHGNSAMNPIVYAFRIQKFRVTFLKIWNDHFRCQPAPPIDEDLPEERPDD

Adenosine receptor A2a, sequence (P29274 whole entry): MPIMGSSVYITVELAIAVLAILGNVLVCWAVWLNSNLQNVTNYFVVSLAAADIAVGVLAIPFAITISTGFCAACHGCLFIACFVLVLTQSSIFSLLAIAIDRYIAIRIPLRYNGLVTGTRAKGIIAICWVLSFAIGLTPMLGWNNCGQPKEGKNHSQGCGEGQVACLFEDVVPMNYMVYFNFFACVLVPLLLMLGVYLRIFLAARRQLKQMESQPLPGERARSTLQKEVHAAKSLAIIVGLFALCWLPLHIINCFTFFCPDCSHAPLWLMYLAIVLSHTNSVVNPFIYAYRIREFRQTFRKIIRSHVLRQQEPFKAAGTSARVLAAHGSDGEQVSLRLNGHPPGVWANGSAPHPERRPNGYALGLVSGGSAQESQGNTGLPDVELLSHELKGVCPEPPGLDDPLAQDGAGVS

Structure (SMILES) | Ki (Adenosine receptor A2a) [nM] | Ki (Adenosine receptor A3) [nM] | IC50 (Adenosine receptor A2b) [nM] | Ki (Adenosine receptor A1) [nM]
CCn1cc2c(nc(NC(=O)C(c3ccccc3)c3ccccc3)n3nc(-c4ccco4)nc23)n1 | 131 | 0.98 |  | 
CCOC(=O)c1ccc(CCn2ncc3c2nc(N)n2nc(-c4ccco4)nc32)cc1 | 4 | > 10000 |  | 
CCCCn1cc2c(nc(NC(=O)C(c3ccccc3)c3ccccc3)n3nc(-c4ccco4)nc23)n1 | 114 | 1.2 | 780 | 129
Cn1cc2c(nc(NC(=O)Cc3cccs3)n3nc(-c4ccco4)nc23)n1 | 56 | 5.26 | > 10000 | 444
CCCCn1cc2c(nc(NC(=O)Cc3cccc4ccccc34)n3nc(-c4ccco4)nc23)n1 |  | 100 | 7370 | 170
CCn1cc2c(nc(NC(=O)Cc3cccc4ccccc34)n3nc(-c4ccco4)nc23)n1 | 74.6 | 3.05 | > 50000 | 596
CCn1cc2c(nc(NC(=O)Cc3cccs3)n3nc(-c4ccco4)nc23)n1 | 15.9 | 196 | 15000 | 148
CC(C)CCn1cc2c(nc(NC(=O)CCCNC(=O)OC(C)(C)C)n3nc(-c4ccco4)nc23)n1 | 297 |  |  | 
CCn1cc2c(nc(NC(=O)Cc3ccsc3)n3nc(-c4ccco4)nc23)n1 | 23 | 765 | 9370 | 154
COc1ccc(CC(=O)Nc2nc3nn(C)c(SC)c3c3nc(-c4ccco4)nn23)cc1 |  | > 1000 |  | 
CCCCn1cc2c(nc(NC(=O)Cc3ccsc3)n3nc(-c4ccco4)nc23)n1 | 3.13 | 189 | 906 | 25.5
CC(C)CCn1cc2c(nc(NC(=O)COc3ccc(Cl)cc3)n3nc(-c4ccco4)nc23)n1 | 16.1 | 2310 |  | 
CC(C)CCn1cc2c(nc(NC(=O)Cc3c(Cl)cccc3Cl)n3nc(-c4ccco4)nc23)n1 | 18.7 | 207 | 1440 | 121
Cn1cc2c(nc(NC(=O)Cc3ccsc3)n3nc(-c4ccco4)nc23)n1 | 31.3 | 1.25 | 13700 | 461
CC(C)CCn1cc2c(nc(NC(=O)Cc3ccc(F)cc3)n3nc(-c4ccco4)nc23)n1 | 3.69 | 116 | 5060 | 51.8
CC(C)(C)OC(=O)NCCCC(=O)Nc1nc2nn(CCc3ccccc3)cc2c2nc(-c3ccco3)nn12 | 288 |  |  | 
CC(C)CCn1cc2c(nc(NC(=O)Cc3ccc(-c4ccccc4)cc3)n3nc(-c4ccco4)nc23)n1 |  | 268 | 8960 | 84.3
O=C(Cc1ccc2ccccc2c1)Nc1nc2nn(CCCc3ccccc3)cc2c2nc(-c3ccco3)nn12 | 73.6 | 717 | > 50000 | 241
COc1ccc(CC(=O)Nc2nc3nn(CCCc4ccccc4)cc3c3nc(-c4ccco4)nn23)cc1 |  | 120 |  | 
O=C(Cc1ccc(F)cc1)Nc1nc2nn(CCCc3ccccc3)cc2c2nc(-c3ccco3)nn12 | 211 | 58.5 | > 50000 | 726
O=C(COc1ccc(Cl)cc1)Nc1nc2nn(CCc3ccccc3)cc2c2nc(-c3ccco3)nn12 | 31.7 | 3250 |  | 
Cn1cc2c(nc(NC(=O)COc3ccc(Cl)cc3)n3nc(-c4ccco4)nc23)n1 | 39.3 | 223 | > 10000 | 963
CC(C)CCn1cc2c(nc(NC(=O)C(c3ccccc3)c3ccccc3)n3nc(-c4ccco4)nc23)n1 | 159 | 5.86 | > 10000 | 441
COc1ccc(CC(=O)Nc2nc3nn(CCC(C)C)cc3c3nc(-c4ccco4)nn23)cc1 | 1.95 | 359 |  | 
CC(C)CCn1cc2c(nc(NC(=O)Cc3ccsc3)n3nc(-c4ccco4)nc23)n1 | 3.88 | 540 |  | 
CCOC(=O)[C@H]1Oc2ccc(CCCn3ncc4c3nc(N)n3nc(-c5ccco5)nc43)cc2O1 | 5.48 | > 10000 |  | 
Cn1cc2c(nc(NC(=O)Cc3cccc(Cl)c3)n3nc(-c4ccco4)nc23)n1 | 30.5 | 1.94 | 8960 | 410

Structure (SMILES) | Ki (Adenosine receptor A2a) [nM] | Ki (Adenosine receptor A3) [nM] | IC50 (Adenosine receptor A2b) [nM] | Ki (Adenosine receptor A1) [nM]
O=C(Nc1cccc(Cl)c1)Nc1nc2nn(CCc3c(Br)cc(Br)cc3Br)cc2c2nc(-c3ccco3)nn12 | 3600 | 71 |  | 
O=C(Nc1nc2nn(CCCc3ccccc3)cc2c2nc(-c3ccco3)nn12)C(c1ccccc1)c1ccccc1 | 326 | 12.6 | > 10000 | 307
O=C(COc1ccc(Cl)cc1)Nc1nc2nn(CCCc3ccccc3)cc2c2nc(-c3ccco3)nn12 |  | 400 | > 10000 | 71.1
COc1ccc(NC(=O)Nc2nc3nn(Cc4cccc5ccccc45)cc3c3nc(-c4ccco4)nn23)cc1 | 3260 | 16 |  | 
O=C(Nc1nc2nn(CCc3ccccc3)cc2c2nc(-c3ccco3)nn12)C(c1ccccc1)c1ccccc1 | 53.1 | 6.49 | 5840 | 115
O=C(Cc1ccc(-c2ccccc2)cc1)Nc1nc2nn(CCc3ccccc3)cc2c2nc(-c3ccco3)nn12 | 46.9 | 125 | 11100 | 84.3
Cn1cc2c(nc(NC(=O)Cc3c(Cl)cccc3Cl)n3nc(-c4ccco4)nc23)n1 | 45.2 | 44.4 | 6450 | 908
O=C(Cc1cccc(Cl)c1)Nc1nc2nn(CCCc3ccccc3)cc2c2nc(-c3ccco3)nn12 | 182 | 110 | 50000 | 605
O=C(Cc1ccsc1)Nc1nc2nn(CCc3ccccc3)cc2c2nc(-c3ccco3)nn12 |  | 726 | > 10000 | 22.8
COc1ccc(CC(=O)Nc2nc3nn(C)cc3c3nc(-c4ccco4)nn23)cc1 | 62.5 | 0.95 | > 10000 | 133
C=Cn1cc2c(nc(NC(=O)Nc3ccc(OC)cc3)n3nc(-c4ccco4)nc23)n1 | 176 | 0.48 |  | 
CCCn1cc2c(nc(NC(=O)Cc3cccc4ccccc34)n3nc(-c4ccco4)nc23)n1 | 38.7 | 17.3 | 12400 | 388
Cn1cc2c(nc(NC(=O)COc3ccccc3)n3nc(-c4ccco4)nc23)n1 |  | 692 |  | 
CCCCn1cc2c(nc(NC(=O)Cc3ccc(-c4ccccc4)cc3)n3nc(-c4ccco4)nc23)n1 | 39.6 | 189 | 8630 | 381
CCn1cc2c(nc(NC(=O)Cc3ccc4ccccc4c3)n3nc(-c4ccco4)nc23)n1 | 18.4 | 36.3 | 10400 | 185
CCCn1cc2c(nc(NC(=O)Cc3ccc4ccccc4c3)n3nc(-c4ccco4)nc23)n1 | 7.99 | 95.9 | 5370 | 160
CC(C)CCn1cc2c(nc(NC(=O)Cc3cccs3)n3nc(-c4ccco4)nc23)n1 |  | 308 |  | 
O=C(Cc1cccs1)Nc1nc2nn(CCc3ccccc3)cc2c2nc(-c3ccco3)nn12 |  | 330 | > 10000 | 18.5
COc1ccc(NC(=O)Nc2nc3nn(CCc4c(Br)cc(Br)cc4Br)cc3c3nc(-c4ccco4)nn23)cc1 | 2030 | 25 |  | 
O=C(Cc1cccc(Cl)c1)Nc1nc2nn(CCc3ccccc3)cc2c2nc(-c3ccco3)nn12 |  | 273 | 9100 | 13.2
Nc1nc2c(cnn2CCCc2ccc3c(c2S(=O)(=O)O)OCO3)c2nc(-c3ccco3)nn12 | 75 | > 10000 |  | 
Nc1nc2c(cnn2CCCc2ccc3c(c2)O[C@@H](C(=O)O)O3)c2nc(-c3ccco3)nn12 | 59 | > 10000 |  | 
CCOC(=O)COc1ccc(CCCn2ncc3c2nc(N)n2nc(-c4ccco4)nc32)cc1 | 0.43 | > 10000 |  | 
Nc1nc2nn(CCc3c(Br)cc(Br)cc3Br)cc2c2nc(-c3ccco3)nn12 | 348 | 4480 |  | 
CSc1c2c(nc(NC(=O)Cc3ccc(OCC(C)C)cc3)n3nc(-c4ccco4)nc23)nn1C | 50 | > 1000 |  | 
CCCCn1cc2c(nc(NC(=O)Cc3ccc4ccccc4c3)n3nc(-c4ccco4)nc23)n1 | 7.94 | 174 |  | 
CCn1cc2c(nc(N)n3nc(-c4ccco4)nc23)n1 |  | 3760 |  | 
